Reference: patent publication US8945359B2, “Flavin-binding glucose dehydrogenase” (Ikeda Food Research Co., Ltd., priority 2011, dated 2015)
Like-named read-outs stand apart in the source and are kept apart here.

What was measured:
[1] = system: OC[C@H]1OC(O)[C@H](O)[C@@H](O)[C@@H]1O; assay: purified protein, by the assay type; conditions: other: BotGLD, D-glucose varied, Hanes-Woolf plot, DCIP/1-m-PMS, pH 6.0, 37° C.
Protocol: (§3) Each solution was mixed according to the following procedures to measure the absorbance, thereby examining GLD activity.
(§4) Then, 0.05 mL of an enzyme sample was added to the mixture to start a reaction. The amount (ΔA600) of reduction in light absorbance per minute at 600 nm along with the progress of the enzymatic reaction was measured for 5 minutes from the start of the reaction to calculate GLD activity from the straight line part according to the equation 1. At this time, in the measurement of GLD activity, the amount of an enzyme reducing 1 μmol of DCIP at 37° C. and a pH of 6.0 for one minute was defined as 1 U.
(§5) In the above formula, 3.0 represents the amount (mL) of reaction reagent+oxygen solution, 10.8 represents the molar absorption coefficient (mM^−1 cm^−1) of DCIP at a pH of 6.0, 1.0 represents the optical path length (cm) of a cell, 0.05 represents the amount (mL) of the oxygen solution, ΔA600 blank represents a reduction in the amount of light absorbance per minute at 600 nm when the solution used to dilute the enzyme is added in place of the enzyme solution to start a reaction, and df represents a dilution ratio.

[2] = system: Dumontinia tuberosa NBRC30254 flavin-binding glucose dehydrogenase DuGLD (A), purified, wild type, SEQ ID NO: 2 (without signal sequence SEQ ID NO: 10); assay: Inhibitive effect of 1,10-phenanthroline, DuGLD; format: biochemical; conditions: methanol only = 0%
Protocol: (§1) The enzymatic activity of each of the purified GLDs (A) to (F) was measured when 1,10-phenanethroline dissolved in methanol was added such that its final concentration was 2 mM, 5 mM or 10 mM in the above method for measuring enzymatic activity. The inhibitive effect obtained when only methanol was added was defined as 0% to find the inhibitive effect of 1,10-phenanthroline at each concentration. The obtained results are shown collectively as the inhibitive effect of 1,10-phenanthroline in Table 4.

[3] = system: Ovulinia azaleae NBRC6610 flavin-binding glucose dehydrogenase OvGLD (B), purified, wild type, SEQ ID NO: 6 (without signal sequence SEQ ID NO: 14); assay: Inhibitive effect of 1,10-phenanthroline, OvGLD; format: biochemical; conditions: methanol only = 0%
Protocol: as §1

[4] = system: Sclerotinia sclerotiorum NBRC103652 flavin-binding glucose dehydrogenase ScGLD (C), purified, wild type; assay: Inhibitive effect of 1,10-phenanthroline, ScGLD; format: biochemical; conditions: methanol only = 0%
Protocol: (§2) After the column was washed with the buffer solution C2, a protein was eluted with linear gradient of a buffer solution D3 (500 mM potassium phosphate buffer solution, pH 7.0) in the buffer solution C2.
as §1

[5] = system: Botrytis fabae NBRC7171 flavin-binding glucose dehydrogenase BoGLD (D), purified, wild type; assay: Inhibitive effect of 1,10-phenanthroline, BoGLD; format: biochemical; conditions: methanol only = 0%
Protocol: as §1

[6] = biological target: T1, Botrytis tulipae NBRC5896 flavin-binding glucose dehydrogenase BotGLD (E), purified from A. oryzae NS4 with BotGLD-Atsig modified gene, SEQ ID NO: 4 (without signal sequence SEQ ID NO: 12) (Botrytis tulipae, UniProt A0A4Z1FFJ6); assay: Inhibitive effect of 1,10-phenanthroline, BotGLD; format: biochemical
T1 construct: up to three extra N-terminal residues possible
Protocol: as §1

[7] = system: Ciborinia camelliae NBRC103663 flavin-binding glucose dehydrogenase CiGLD (F), purified from A. oryzae NS4 with CiGLD-Atsig modified gene, SEQ ID NO: …; assay: Inhibitive effect of 1,10-phenanthroline, CiGLD; format: biochemical; conditions: methanol only = 0%
Protocol: as §1

[8] = system: Sclerotinia sclerotiorum NBRC103652 flavin-binding glucose dehydrogenase ScGLD (C), purified, wild type; assay: Km value to D-glucose (Hanes-Woolf plot), ScGLD; format: biochemical; conditions: D-glucose varied, DCIP/1-m-PMS, pH 6.0, 37° C.
Protocol: as §2

[9] = system: Botrytis fabae NBRC7171 flavin-binding glucose dehydrogenase BoGLD (D), purified, wild type; conditions: read-out: Km value, D-glucose varied, Hanes-Woolf plot, DCIP/1-m-PMS, pH 6.0, 37° C.
Source text: The transmitted active fraction was combined with the active fraction eluted after adsorbed and these fractions were concentrated and dialyzed against the buffer solution C3.

[10] = system: Ovulinia azaleae NBRC6610 flavin-binding glucose dehydrogenase OvGLD (B), purified, wild type, SEQ ID NO: 6 (without signal sequence SEQ ID NO: 14); conditions: read-out: Km value, D-glucose varied, Hanes-Woolf plot, DCIP/1-m-PMS, pH 6.0, 37° C.
Protocol: as §3, §4, §5

[11] = system: Ciborinia camelliae NBRC103663 flavin-binding glucose dehydrogenase CiGLD (F), purified from A. oryzae NS4 with CiGLD-Atsig modified gene, SEQ ID NO: …; conditions: read-out: Km value, D-glucose varied, Hanes-Woolf plot, DCIP/1-m-PMS, pH 6.0, 37° C.
Protocol: as §3, §4, §5
Among the eluted protein, an active fraction was concentrated and desalted to obtain a purified enzyme of GLD derived from the genus Ciborinia substituted with water.

T1 sequence (A0A4Z1FFJ6 17-589, added parts left off): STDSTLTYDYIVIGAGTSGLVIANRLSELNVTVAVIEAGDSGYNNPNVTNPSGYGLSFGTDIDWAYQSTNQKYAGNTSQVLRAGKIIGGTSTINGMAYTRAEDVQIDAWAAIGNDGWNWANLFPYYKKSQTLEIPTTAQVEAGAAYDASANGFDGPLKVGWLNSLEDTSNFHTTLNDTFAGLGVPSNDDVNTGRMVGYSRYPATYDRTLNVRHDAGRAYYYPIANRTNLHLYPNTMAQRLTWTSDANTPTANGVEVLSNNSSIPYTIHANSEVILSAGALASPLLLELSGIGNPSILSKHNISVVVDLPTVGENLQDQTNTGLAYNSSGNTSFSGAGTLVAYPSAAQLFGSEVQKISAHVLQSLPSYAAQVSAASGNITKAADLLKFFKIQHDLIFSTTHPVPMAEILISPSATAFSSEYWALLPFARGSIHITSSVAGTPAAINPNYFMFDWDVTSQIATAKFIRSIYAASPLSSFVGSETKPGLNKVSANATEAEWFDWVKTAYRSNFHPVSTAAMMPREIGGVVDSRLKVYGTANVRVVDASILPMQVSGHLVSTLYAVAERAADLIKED

With “Botrytis tulipae NBRC5896 flavin-binding glucose dehydrogenase BotGLD (E), purified from A. oryzae NS4 with BotGLD-Atsig modified gene, SEQ ID NO: 4 (without signal sequence SEQ ID NO: 12) (Botrytis tulipae)” the Km [1] was 36.2 mM.
`c1cnc2c(c1)ccc1cccnc12` [1,10-phenanthroline] was tested, and the Inhibitive effect ([2]; final concentration 2 mM) was 20.4%, the Inhibitive effect ([2]; final concentration 5 mM) was 30.1% and the Inhibitive effect ([2]; final concentration 10 mM) was 42.3%. For the same molecule, the Inhibitive effect ([3]; final concentration 2 mM) was 34.1%, the Inhibitive effect ([3]; final concentration 5 mM) was 51.7% and the Inhibitive effect ([3]; final concentration 10 mM) was 65.1%. For the same molecule, the Inhibitive effect ([4]; final concentration 2 mM) was 5.28%, the Inhibitive effect ([4]; final concentration 5 mM) was 18.4% and the Inhibitive effect ([4]; final concentration 10 mM) was 32.3%. The Inhibitive effect ([5]; final concentration 2 mM) was 10.4%, the Inhibitive effect ([5]; final concentration 5 mM) was 15.9% and the Inhibitive effect ([5]; final concentration 10 mM) was 28.5%. The inhibition at 2000 µM ([6]; BotGLD, final concentration 2 mM, methanol only = 0%, read-out: Inhibitive effect) was 33.5%, the inhibition at 5000 µM ([6]; BotGLD, final concentration 5 mM, methanol only = 0%) was 38.6% and the inhibition at 10000 µM ([6]; BotGLD, final concentration 10 mM, methanol only = 0%) was 75.4%. The inhibition at 2000 µM ([6]; DuGLD, OvGLD and BotGLD together, 2 mM, read-out: Inhibitive effect (summary range)) was 20 to 34%, the Inhibitive effect ([7]; final concentration 2 mM) was 6.34% and the Inhibitive effect ([7]; final concentration 5 mM) was 14.7%. The Inhibitive effect ([7]; final concentration 10 mM) was 32.7%.
Work on `OC[C@H]1OC(O)[C@H](O)[C@@H](O)[C@@H]1O` (stereo partly drawn) [D-glucose] yielded a Km [8] of 16.7 mM, a Km [9] of 35 mM and a Km [10] of 22.8 mM. For the same molecule, the Km [11] was 5.44 mM.
